Drawing on ChEMBL document CHEMBL1149226, “Inhibitors of hepatitis C virus NS3.4A protease. Part 3: P2 proline variants” (Bioorg Med Chem Lett, 2004), this text covers Ki for nine molecules.

The Ki is the dissociation constant of the complex between target and ligand, obtained from inhibition or displacement.

The structures appear in SMILES notation. Starred links: 1 amine or outer side, 2 acyl side, 3 side chain; linkers in the order of their positions; H or OH if unused. Non-standard residues stand in square brackets, D forms with d. Residues, ends and D or L forms follow the SMILES beside them. Groups on a side chain read outwards from the residue. *: point of attachment. Tetrahydroisoquinolin(2-yl) = c1ccc2c(c1)CCN(*)C2; Pro(3S-Et) = CC[C@H]1CCN[C@@H]1C(=O)O; X1 = CCC[C@H](N[*:1])C(=O)C(=O)[*:2]; Pyrazinecarbonyl = O=C(c1cnccn1)*; Hyp = O=C(O)[C@@H]1C[C@@H](O)CN1; CO = O=C([*:1])[*:2]

Assay [1] concerns the target Hepatitis C virus serine protease, NS3/NS4A (Hepatitis C virus, UniProt D2K2A8+A3EZI9). The assay can be described thus: (§1) Inhibitory activity against hepatitis C virus NS3.4A protease. The assay is classed as protein-complex assay, Hepacivirus hominis.
For assay [2], the target named is Hepatitis C virus serine protease, NS3/NS4A (Hepatitis C virus, UniProt A3EZI9+D2K2A8). The assay is described as §1. The class given is protein-complex assay, Hepacivirus hominis.
Chain of Hepatitis C virus serine protease, NS3/NS4A (Hepatitis C virus, UniProt A3EZI9+D2K2A8) (D2K2A8 whole entry): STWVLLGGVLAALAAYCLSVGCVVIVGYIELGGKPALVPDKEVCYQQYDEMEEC
Chain of Hepatitis C virus serine protease, NS3/NS4A (Hepatitis C virus, UniProt A3EZI9+D2K2A8) (A3EZI9 whole entry): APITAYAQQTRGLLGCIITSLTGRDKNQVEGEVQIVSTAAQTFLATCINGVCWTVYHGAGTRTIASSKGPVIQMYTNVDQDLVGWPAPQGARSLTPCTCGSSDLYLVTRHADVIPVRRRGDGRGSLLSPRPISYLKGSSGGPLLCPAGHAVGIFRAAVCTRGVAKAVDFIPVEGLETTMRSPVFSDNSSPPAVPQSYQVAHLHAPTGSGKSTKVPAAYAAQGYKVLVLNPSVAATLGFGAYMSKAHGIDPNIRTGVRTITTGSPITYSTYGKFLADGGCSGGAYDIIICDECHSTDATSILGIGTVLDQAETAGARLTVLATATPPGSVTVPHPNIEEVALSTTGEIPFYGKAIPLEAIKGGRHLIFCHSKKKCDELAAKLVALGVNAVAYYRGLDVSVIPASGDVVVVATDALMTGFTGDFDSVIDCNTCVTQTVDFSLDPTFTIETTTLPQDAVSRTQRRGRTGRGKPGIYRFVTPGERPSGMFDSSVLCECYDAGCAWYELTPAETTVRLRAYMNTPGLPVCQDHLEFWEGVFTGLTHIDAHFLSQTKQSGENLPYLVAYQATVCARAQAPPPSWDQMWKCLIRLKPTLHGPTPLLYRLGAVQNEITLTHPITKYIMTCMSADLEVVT

Chain of Hepatitis C virus serine protease, NS3/NS4A (Hepatitis C virus, UniProt D2K2A8+A3EZI9) (D2K2A8 whole entry): as the sequence (D2K2A8 whole entry) above
Chain of Hepatitis C virus serine protease, NS3/NS4A (Hepatitis C virus, UniProt D2K2A8+A3EZI9) (A3EZI9 whole entry): as the sequence (A3EZI9 whole entry) above

Turning to `CCC[C@H](NC(=O)[C@@H]1[C@@H](CC)CCN1C(=O)[C@@H](NC(=O)[C@@H](NC(=O)c1cnccn1)C(C)C)C(C)C)C(=O)C(=O)N[C@@H](Cc1ccccc1)C(=O)O` (Pyrazinecarbonyl-VV[Pro(3S-Et)][X1]F-OH), the Ki in assay [1] amounted to 220 nM.

As to `C=CC[C@H]1CCN(C(=O)[C@@H](NC(=O)[C@@H](NC(=O)c2cnccn2)C(C)C)C(C)C)[C@@H]1C(=O)N[C@@H](CCC)C(=O)C(=O)N[C@@H](Cc1ccccc1)C(=O)O`, the affinity in assay [1], expressed as Ki, was 210 nM.

In assay [1], `CCC[C@H](NC(=O)[C@@H]1[C@@H](C(=O)OC)CCN1C(=O)[C@@H](NC(=O)[C@@H](NC(=O)c1cnccn1)C(C)C)C(C)C)C(=O)C(=O)N[C@@H](Cc1ccccc1)C(=O)O` had a Ki of 180 nM.

Regarding `CCC[C@H]1CCN(C(=O)[C@@H](NC(=O)[C@@H](NC(=O)c2cnccn2)C(C)C)C(C)C)[C@@H]1C(=O)N[C@@H](CCC)C(=O)C(=O)N[C@@H](Cc1ccccc1)C(=O)O`, the Ki in assay [1] was found to be 1200 nM.

`CCC[C@H](NC(=O)[C@@H]1[C@@H](C(C)CC)CCN1C(=O)[C@@H](NC(=O)[C@@H](NC(=O)c1cnccn1)C(C)C)C(C)C)C(=O)C(=O)N[C@@H](Cc1ccccc1)C(=O)O` (some centres undefined) yielded a Ki in assay [1] of 120 nM.

`CC[C@H](NC(=O)[C@@H]1[C@@H](C)CCN1C(=O)[C@@H](NC(=O)[C@@H](NC(=O)c1cnccn1)C(C)C)C(C)C)C(=O)C(=O)N[C@@H](C)c1ccccc1` yielded a Ki in assay [1] of 1400 nM.

On to `CCC[C@H](NC(=O)[C@@H]1CCCN1C(=O)[C@@H](NC(=O)[C@@H](NC(=O)c1cnccn1)C1CCCCC1)C(C)(C)C)C(=O)C(=O)NC1CC1`, for which affinity in assay [2] was put at a Ki of 1200 nM.

On to `CC[C@H](NC(=O)[C@@H]1C[C@@H](OCc2ccccc2)CN1C(=O)[C@@H](NC(=O)[C@@H](NC(=O)c1cnccn1)C(C)C)C(C)C)C(=O)C(=O)N[C@@H](C)c1ccccc1`, for which, in assay [1], affinity was put at a Ki of 920 nM.

`CCC[C@H](NC(=O)[C@@H]1C[C@@H](OC(=O)N2CCc3ccccc3C2)CN1C(=O)[C@@H](NC(=O)[C@@H](NC(=O)c1cnccn1)C(C)C)C(C)C)C(=O)C(=O)N[C@@H](Cc1ccccc1)C(=O)O` (Pyrazinecarbonyl-VV[Hyp]([CO-Tetrahydroisoquinolin(2-yl)])[X1]F-OH): the affinity in assay [1] corresponds to a Ki of 20 nM.
